Experimental data published in PMC12056728 (RSC Advances, 2025).

biological target: α-glucosidase (E.C.3.2.1.20) (Saccharomyces cerevisiae, UniProt P53341); experiment: α-glucosidase inhibition assay; format: biochemical; settings: IC50 could not be determined
Sequence (P53341 whole entry): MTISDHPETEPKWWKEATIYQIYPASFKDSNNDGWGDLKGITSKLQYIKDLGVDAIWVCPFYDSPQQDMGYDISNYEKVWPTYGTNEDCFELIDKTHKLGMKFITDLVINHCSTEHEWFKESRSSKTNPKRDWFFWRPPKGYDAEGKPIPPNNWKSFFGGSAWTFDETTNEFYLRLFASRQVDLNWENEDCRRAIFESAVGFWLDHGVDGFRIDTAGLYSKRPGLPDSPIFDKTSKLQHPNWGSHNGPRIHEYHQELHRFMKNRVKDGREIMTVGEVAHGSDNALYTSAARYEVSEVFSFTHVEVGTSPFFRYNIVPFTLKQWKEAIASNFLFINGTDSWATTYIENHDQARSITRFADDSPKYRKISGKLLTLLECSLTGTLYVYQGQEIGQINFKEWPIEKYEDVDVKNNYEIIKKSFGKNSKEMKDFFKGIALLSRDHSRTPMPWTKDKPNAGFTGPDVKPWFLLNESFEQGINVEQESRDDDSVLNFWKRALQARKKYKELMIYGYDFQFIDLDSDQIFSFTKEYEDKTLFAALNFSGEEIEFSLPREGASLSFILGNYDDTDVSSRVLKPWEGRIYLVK

SMILES | α-glucosidase inhibitory activity (in words)
O=C(NN=C1C(=O)N(CCOc2ccc(F)cc2)c2ccccc21)c1cccnc1 [1j, N′-(1-(2-(4-Fluorophenoxy)ethyl)-2-oxoindolin-3-ylidene)nicotinohydrazide] | complete loss of inhibitory activity
O=C(NN=C1C(=O)N(CCOc2ccc(F)cc2)c2ccccc21)c1ccncc1 [1k, N′-(1-(2-(4-Fluorophenoxy)ethyl)-2-oxoindolin-3-ylidene)isonicotinohydrazide] | loss of inhibitory activity

same assay, conditions: read-out: Percent inhibition (0.5 mM)

SMILES | inhibition at 500 µM
O=C(NN=C1C(=O)N(CCOc2ccc(F)cc2)c2ccccc21)c1cccnc1 [1j, N′-(1-(2-(4-Fluorophenoxy)ethyl)-2-oxoindolin-3-ylidene)nicotinohydrazide] | 36%
O=C(NN=C1C(=O)N(CCOc2ccc(F)cc2)c2ccccc21)c1ccc(Br)cc1 [1l, 4-Bromo-N′-(1-(2-(4-fluorophenoxy)ethyl)-2-oxoindolin-3-ylidene)benzohydrazide] | 93.1%
O=C(NN=C1C(=O)N(CCOc2ccccc2)c2ccccc21)c1ccncc1 [1b, N′-(2-Oxo-1-(2-phenoxyethyl)indolin-3-ylidene)isonicotinohydrazide] | 94.1%
O=C(NN=C1C(=O)N(CCOc2ccc(Cl)cc2)c2ccccc21)c1ccncc1 [1e, N′-(1-(2-(4-Chlorophenoxy)ethyl)-2-oxoindolin-3ylidene)isonicotinohydrazide] | 94.7%
O=C(NN=C1C(=O)N(CCOc2ccc(Br)cc2)c2ccccc21)c1ccc(Br)cc1 [1i, 4-Bromo-N′-(1-(2-(4-bromophenoxy)ethyl)-2-oxoindolin-3-ylidene)benzohydrazide] | 94.9%
O=C(NN=C1C(=O)N(CCOc2ccc(Br)cc2)c2ccccc21)c1cccnc1 [1g, N′-(1-(2-(4-Bromophenoxy)ethyl)-2-oxoindolin-3-ylidene)nicotinohydrazide] | 92.1%
O=C(NN=C1C(=O)N(CCOc2ccc(Cl)cc2)c2ccccc21)c1cccnc1 [1d, N′-(1-(2-(4-Chlorophenoxy)ethyl)-2-oxoindolin-3-ylidene)nicotinohydrazide] | 92.9%
O=C(NN=C1C(=O)N(CCOc2ccccc2)c2ccccc21)c1cccnc1 [1a, N′-(2-Oxo-1-(2-phenoxyethyl)indolin-3-ylidene)nicotinohydrazide] | 75.6%
O=C(NN=C1C(=O)N(CCOc2ccc(Cl)cc2)c2ccccc21)c1ccc(Br)cc1 [1f, 4-Bromo-N′-(1-(2-(4-chlorophenoxy)ethyl)-2-oxoindolin3ylidene)benzohydrazide] | 94.5%
O=C(NN=C1C(=O)N(CCOc2ccc(F)cc2)c2ccccc21)c1ccncc1 [1k, N′-(1-(2-(4-Fluorophenoxy)ethyl)-2-oxoindolin-3-ylidene)isonicotinohydrazide] | 39.3%
O=C(NN=C1C(=O)N(CCOc2ccc(Br)cc2)c2ccccc21)c1ccncc1 [1h, N′-(1-(2-(4-Bromophenoxy)ethyl)-2-oxoindolin-3-ylidene)isonicotinohydrazide] | 89.9%
O=C(NN=C1C(=O)N(CCOc2ccccc2)c2ccccc21)c1ccc(Br)cc1 [1c, 4-Bromo-N′-(2-oxo-1-(2-phenoxyethyl)indolin-3-ylidene)benzohydrazide] | 90.6%
